Data taken from ChEMBL document CHEMBL1130632, “Polycyclic aromatic compounds as anticancer agents: synthesis and biological evaluation of some chrysene derivatives” (Bioorg Med Chem Lett, 1998).
≈ marks a conversion by molar mass, not a printed value.

Key:
Type in all cases: functional, cell-based
BRO melanoma cell line = experiment: Compound was evaluated for the growth inhibition of BRO melanoma cell line.; settings: Homo sapiens
SK-MEL-2 = experiment: Compound was evaluated for the growth inhibition of […] melanoma cell line.; settings: Homo sapiens
HT-29 = experiment: Compound was evaluated for the growth inhibition of HT-29 colon cell line.; settings: Homo sapiens
P388 = experiment: Compound was evaluated for the growth inhibition of p388/0 leukemia cell line.; settings: Mus musculus
MCF7 = experiment: Compound was evaluated for the growth inhibition of MCF-7 breast cell line.; settings: Homo sapiens

IC50 (BRO melanoma cell line) | IC50 (SK-MEL-2) | IC50 (HT-29) | IC50 (P388) | IC50 (MCF7) | SMILES
4.5 µg/mL (≈ 11.8 µM) | 3.8 µg/mL (≈ 9.93 µM) | 2.3 µg/mL (≈ 6.01 µM) | 2.2 µg/mL (≈ 5.75 µM) | 3 µg/mL (≈ 7.84 µM) | c1ccc2c(c1)ccc1c3ccc(NCCCCN4CCCCC4)cc3ccc21
8.8 µg/mL (≈ 22.1 µM) | 8.7 µg/mL (≈ 21.9 µM) | 9.3 µg/mL (≈ 23.4 µM) | 4.7 µg/mL (≈ 11.8 µM) | 12.1 µg/mL (≈ 30.4 µM) | CN1CCN(CCCCNc2ccc3c(ccc4c5ccccc5ccc34)c2)CC1
17.3 µg/mL (≈ 42.1 µM) | 13.3 µg/mL (≈ 32.4 µM) | 8.5 µg/mL (≈ 20.7 µM) | 10.5 µg/mL (≈ 25.6 µM) | 10.2 µg/mL (≈ 24.8 µM) | O=C(CCC(=O)N1CCCCC1)Nc1ccc2c(ccc3c4ccccc4ccc23)c1

The remaining lines, values behind:

SMILES | IC50 (BRO melanoma cell line) | IC50 (SK-MEL-2) | IC50 (HT-29) | IC50 (P388) | IC50 (MCF7)
CN1CCN(C(=O)CCC(=O)Nc2ccc3c(ccc4c5ccccc5ccc34)c2)CC1 | 9.5 µg/mL (≈ 22.3 µM) | 9.2 µg/mL (≈ 21.6 µM) | 4.8 µg/mL (≈ 11.3 µM) | 7.9 µg/mL (≈ 18.6 µM) | 9.8 µg/mL (≈ 23 µM)
CN1CCN(C(=O)CCC(=O)Nc2cc3c4ccccc4ccc3c3ccccc23)CC1 | 11.8 µg/mL (≈ 27.7 µM) | 10 µg/mL (≈ 23.5 µM) | 6.6 µg/mL (≈ 15.5 µM) | 9.8 µg/mL (≈ 23 µM) | 11.2 µg/mL (≈ 26.3 µM)
O=C(CCC(=O)N1CCCCC1)Nc1cc2c3ccccc3ccc2c2ccccc12 | 15 µg/mL (≈ 36.5 µM) | 15.9 µg/mL (≈ 38.7 µM) | 10.1 µg/mL (≈ 24.6 µM) | 12.2 µg/mL (≈ 29.7 µM) | 11.5 µg/mL (≈ 28 µM)
COc1cccc2c1C(=O)c1c(O)c3c(c(O)c1C2=O)C[C@@](O)(C(=O)CO)C[C@@H]3O[C@H]1C[C@H](N)[C@H](O)[C@H](C)O1 [DOXORUBICIN] | 0.2 µg/mL (≈ 0.368 µM) | 0.1 µg/mL (≈ 0.184 µM) | 0.5 µg/mL (≈ 0.92 µM) | 0.8 µg/mL (≈ 1.47 µM) | 0.4 µg/mL (≈ 0.736 µM)
